“And” between values parts separate entries of the source, which are not always exact repeats. Equal entries are not always repeated. ± gives the expanded uncertainty stated by the source.
Assay: Henry's Law constant (molality scale); of the first substance listed, at infinite dilution; xn = mol fraction of the nth substance listed
Conditions: Liquid, Chromatography, x1 = 0

Row | Henry's Law constant (273.25 K) | Henry's Law constant (298.15 K) | Henry's Law constant (311.15 K) | Henry's Law constant (332.15 K) | SMILES | Henry's Law constant (274.15 K) | Henry's Law constant (296.15 K) | Henry's Law constant (310.15 K) | Henry's Law constant (320.15 K) | Henry's Law constant (326.15 K) | Henry's Law constant (331.15 K) | Henry's Law constant (313.15 K) | Henry's Law constant (294.65 K) | Henry's Law constant (333.15 K)
1 |  |  |  |  | ClC/C=C\CCl [cis-1,4-dichloro-2-butene] + O | 3.03 kPa·kg/mol | 31.9 kPa·kg/mol | 102 kPa·kg/mol | 182 kPa·kg/mol | 1380 kPa·kg/mol | 492 kPa·kg/mol |  |  | 
2 |  |  |  |  | FC(Cl)(Cl)Cl [trichlorofluoromethane] + O | 987 ± 300 kPa·kg/mol |  |  |  | 15600 ± 4700 kPa·kg/mol |  | 8110 ± 2400 kPa·kg/mol |  | 
3 |  |  |  |  | C1CCCCC1 [cyclohexane] + O | 1010 ± 300 kPa·kg/mol | 2250 ± 670 kPa·kg/mol |  |  | 15700 ± 4700 kPa·kg/mol |  | 9460 ± 2800 kPa·kg/mol | 2250 kPa·kg/mol | 
4 |  |  |  |  | Clc1ccccc1Cl [1,2-dichlorobenzene] + O | 41.1 ± 12 kPa·kg/mol | 119 ± 36 kPa·kg/mol | 208 ± 62 kPa·kg/mol | 350 ± 100 kPa·kg/mol |  | 510 ± 150 kPa·kg/mol |  | 102 kPa·kg/mol and 115 kPa·kg/mol | 
5 |  |  |  |  | C=C(Cl)Cl [1,1-dichloroethene] + O | 787 ± 240 kPa·kg/mol |  |  |  | 10500 ± 3200 kPa·kg/mol |  | 4460 ± 1300 kPa·kg/mol |  | 
6 |  |  |  |  | C=CCCl [3-chloro-1-propene] + O | 255 ± 76 kPa·kg/mol |  |  |  | 3170 ± 950 kPa·kg/mol |  | 1350 ± 410 kPa·kg/mol |  | 
7 |  |  |  |  | BrC(Br)Br [tribromomethane] + O | 7.47 ± 2.2 kPa·kg/mol | 50.9 ± 15 kPa·kg/mol | 120 ± 36 kPa·kg/mol | 200 ± 60 kPa·kg/mol |  | 328 ± 98 kPa·kg/mol |  | 46.4 kPa·kg/mol and 29.9 kPa·kg/mol | 
8 | 0.055 ± 0.017 kPa·kg/mol | 1.25 ± 0.37 kPa·kg/mol | 3.19 ± 0.96 kPa·kg/mol | 6.96 ± 2.1 kPa·kg/mol | CC(C)(C)O [2-methylpropan-2-ol] + O |  |  |  |  |  |  |  |  | 
9 |  |  |  |  | ClC(Cl)=C(Cl)C(Cl)=C(Cl)Cl [1,1,2,3,4,4-hexachloro-1,3-butadiene] + O | 145 kPa·kg/mol | 287 kPa·kg/mol | 366 kPa·kg/mol |  | 3830 kPa·kg/mol |  | 2180 kPa·kg/mol |  | 
10 |  |  |  |  | ClCCCl [1,2-dichloroethane] + O | 42.9 ± 13 kPa·kg/mol | 105 ± 32 kPa·kg/mol | 211 ± 63 kPa·kg/mol | 389 ± 120 kPa·kg/mol |  | 517 ± 160 kPa·kg/mol |  | 98.2 kPa·kg/mol and 102 kPa·kg/mol | 
11 |  |  |  |  | CBr [bromomethane] + O | 399 ± 120 kPa·kg/mol |  |  |  | 1920 ± 580 kPa·kg/mol |  | 1120 ± 340 kPa·kg/mol |  | 
12 |  |  |  |  | CC(=O)CC(C)C [4-methylpentan-2-one] + O | 0.834 ± 0.25 kPa·kg/mol | 9.34 ± 2.8 kPa·kg/mol | 37.2 ± 11 kPa·kg/mol | 72.5 ± 22 kPa·kg/mol |  | 164 ± 49 kPa·kg/mol |  | 8.08 kPa·kg/mol and 8.27 kPa·kg/mol | 236 ± 71 kPa·kg/mol
13 |  |  |  |  | C=C(C)C(=O)OC [methyl methacrylate] + O | 2.57 ± 0.77 kPa·kg/mol | 24.5 ± 7.4 kPa·kg/mol | 85.1 ± 26 kPa·kg/mol | 132 ± 40 kPa·kg/mol |  | 250 ± 75 kPa·kg/mol |  | 24.2 kPa·kg/mol and 12.7 kPa·kg/mol | 
14 |  |  |  |  | C1COCCO1 [1,4-dioxane] + O | 0.0629 ± 0.019 kPa·kg/mol | 0.419 ± 0.13 kPa·kg/mol | 0.84 ± 0.25 kPa·kg/mol | 2 ± 0.6 kPa·kg/mol |  | 3.92 ± 1.2 kPa·kg/mol |  | 0.482 kPa·kg/mol and 0.35 kPa·kg/mol | 
15 |  |  |  |  | CI [iodomethane] + O | 251 ± 75 kPa·kg/mol |  |  |  | 1560 ± 470 kPa·kg/mol |  | 814 ± 240 kPa·kg/mol |  | 
16 |  |  |  |  | CCOCC [diethyl ether] + O | 16 ± 5 kPa·kg/mol | 77 ± 23 kPa·kg/mol | 206 ± 62 kPa·kg/mol | 427 ± 130 kPa·kg/mol |  | 803 ± 240 kPa·kg/mol |  | 68 kPa·kg/mol and 70 kPa·kg/mol | 
17 |  |  |  |  | ClC(Cl)(Cl)Cl [tetrachloromethane] + O | 696 ± 210 kPa·kg/mol | 1690 ± 510 kPa·kg/mol |  |  | 7590 ± 2300 kPa·kg/mol |  | 4230 ± 1300 kPa·kg/mol | 1770 kPa·kg/mol and 1580 kPa·kg/mol | 
18 |  |  |  |  | ClC(Cl)C(Cl)Cl [1,1,2,2-tetrachloroethane] + O | 3.6 ± 1.1 kPa·kg/mol | 34.4 ± 10 kPa·kg/mol | 99 ± 30 kPa·kg/mol | 156 ± 47 kPa·kg/mol |  | 262 ± 79 kPa·kg/mol |  | 31.2 kPa·kg/mol and 17.9 kPa·kg/mol | 
19 |  |  |  |  | BrCBr [dibromomethane] + O | 24 ± 7.2 kPa·kg/mol | 72.9 ± 22 kPa·kg/mol | 154 ± 46 kPa·kg/mol | 278 ± 83 kPa·kg/mol |  | 444 ± 130 kPa·kg/mol |  | 67.5 kPa·kg/mol and 64.7 kPa·kg/mol | 
20 | 0.0797 ± 0.032 kPa·kg/mol | 1.91 ± 0.76 kPa·kg/mol | 4.09 ± 1.6 kPa·kg/mol | 100 ± 40 kPa·kg/mol | CCCCC(CC)CO (stereo not given) [2-ethyl-1-hexanol] + O |  |  |  |  |  |  |  |  | 
21 |  |  |  |  | CC=C(Cl)Cl [1,1-dichloro-1-propene] + O | 556 ± 170 kPa·kg/mol | 1460 ± 440 kPa·kg/mol |  |  | 5570 ± 1700 kPa·kg/mol |  | 3190 ± 960 kPa·kg/mol | 1480 kPa·kg/mol and 1360 kPa·kg/mol | 
22 |  |  |  |  | Cc1ccccc1Cl [2-chlorotoluene] + O | 90.4 ± 36 kPa·kg/mol | 356 ± 140 kPa·kg/mol | 503 ± 200 kPa·kg/mol | 533 ± 210 kPa·kg/mol | 1280 ± 510 kPa·kg/mol | 1040 ± 420 kPa·kg/mol | 890 ± 360 kPa·kg/mol | 248 kPa·kg/mol and 316 kPa·kg/mol | 
23 |  |  |  |  | FC(F)(Cl)Cl [dichlorodifluoromethane] + O | 1660 ± 500 kPa·kg/mol |  |  |  | 22600 ± 6800 kPa·kg/mol |  | 40000 ± 12000 kPa·kg/mol |  | 
